The text below walks through data of US9359367B2, “Tetrahydroquinazolinone derivatives as PARP inhibitors” (Lupin Limited, priority 2012, dated 2016).

Molecules are shown by their SMILES.

T1 sequence (P09874 whole entry): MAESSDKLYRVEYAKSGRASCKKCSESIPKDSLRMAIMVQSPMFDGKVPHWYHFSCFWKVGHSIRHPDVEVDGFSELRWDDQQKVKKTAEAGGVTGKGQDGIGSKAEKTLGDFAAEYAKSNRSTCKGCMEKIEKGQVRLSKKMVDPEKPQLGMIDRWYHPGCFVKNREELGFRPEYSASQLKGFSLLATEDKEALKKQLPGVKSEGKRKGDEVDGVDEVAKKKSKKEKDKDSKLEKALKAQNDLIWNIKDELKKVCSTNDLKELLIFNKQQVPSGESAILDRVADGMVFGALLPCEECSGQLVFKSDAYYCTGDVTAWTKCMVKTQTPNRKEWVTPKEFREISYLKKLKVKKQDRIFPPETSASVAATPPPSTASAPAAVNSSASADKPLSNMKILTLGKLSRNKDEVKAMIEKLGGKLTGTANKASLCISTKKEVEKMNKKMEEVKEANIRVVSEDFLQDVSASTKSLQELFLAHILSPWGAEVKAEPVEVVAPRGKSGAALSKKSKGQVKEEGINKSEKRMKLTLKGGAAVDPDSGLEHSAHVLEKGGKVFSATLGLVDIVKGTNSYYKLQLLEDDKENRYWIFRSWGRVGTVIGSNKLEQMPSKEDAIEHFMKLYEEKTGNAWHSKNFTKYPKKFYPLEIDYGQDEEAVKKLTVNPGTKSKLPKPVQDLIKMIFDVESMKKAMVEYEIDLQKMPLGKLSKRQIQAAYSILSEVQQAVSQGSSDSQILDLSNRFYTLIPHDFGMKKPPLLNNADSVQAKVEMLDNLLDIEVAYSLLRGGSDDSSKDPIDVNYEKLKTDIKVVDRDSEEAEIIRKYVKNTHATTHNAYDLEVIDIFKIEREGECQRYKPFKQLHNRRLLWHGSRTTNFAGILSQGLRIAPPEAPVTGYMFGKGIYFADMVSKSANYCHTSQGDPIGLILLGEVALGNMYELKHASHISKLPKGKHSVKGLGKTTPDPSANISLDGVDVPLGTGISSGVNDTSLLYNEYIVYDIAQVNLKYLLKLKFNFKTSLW

The test addresses T1, PARP1 (Homo sapiens, UniProt P09874).
T1 construct: purchased BPS Bioscience
The test can be described thus: PARP1 Biochemical Assay (BPS Bioscience kit, chemiluminescence). The following applies: histone-coated plate, biotinilated NAD+, 25° C. for 60 min, luminescence, read-out: PARP 1 inhibition IC50. The method, boiled down: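 Human PARP1 (25–75 ng/well) with activated DNA was incubated with compound on histone-coated wells. Biotinylated NAD+ was added and the reaction ran 60 min at 25 °C. Ribosylation was detected by streptavidin-HRP chemiluminescence, % inhibition was normalised to enzyme-free and uninhibited controls, and IC50 was fitted from % inhibition versus concentration.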
For the compound `O=c1[nH]c(C2=C[C@H](N3CCN(c4ccc(F)cc4Cl)CC3)CC2)nc2c1CC1(CC2)CC1` [Compound 79, (R)-2′-(3-(4-(2-chloro-4-fluorophenyl)piperazin-1-yl)cyclopent-1-en-1-yl)-7′,8′-dihydro-3′H-spiro[cyclopropane-1,6′-quinazolin]-4′(5′H)-one], the half-maximal inhibitory concentration (IC50) (as a rule, the concentration that gives 50% inhibition) fell in the range of 1 to 500 nM.
Regarding `Cc1cc(N2CCN([C@H]3C=C(c4nc5c(c(=O)[nH]4)CC4(CC5)CC4)CC3)CC2)ccc1F` [Compound 80, (R)-2′-(3-(4-(4-fluoro-3-methylphenyl)piperazin-1-yl)cyclopent-1-en-1-yl)-7′,8′-dihydro-3′H-spiro[cyclopropane-1,6′-quinazolin]-4′(5′H)-one], the half-inhibitory concentration (IC50) was in the range of 1 to 500 nM.
In the case of `Cc1nc2ccc(N3CCN([C@H]4C=C(c5nc6c(c(=O)[nH]5)CC5(CC6)CC5)CC4)CC3)cc2s1` [Compound 81, (R)-2′-(3-(4-(2-methylbenzo[d]thiazol-6-yl)piperazin-1-yl)cyclopent-1-en-1-yl)-7′,8′-dihydro-3′H-spiro[cyclopropane-1,6′-quinazolin]-4′(5′H)-one], the IC50 lay in the range of 501 to 5000 nM.
Turning to `Cc1ccc(N2CCN([C@H]3C=C(c4nc5c(c(=O)[nH]4)CC4(CC5)CC4)CC3)CC2)cc1Cl` [Compound 82, (R)-2′-(3-(4-(3-chloro-4-methylphenyl)piperazin-1-yl)cyclopent-1-en-1-yl)-7′,8′-dihydro-3′H-spiro[cyclopropane-1,6′-quinazolin]-4′(5′H)-one], the half-maximal inhibitory concentration (IC50) was 1 to 500 nM.
For `Cc1ccc(N2CCN([C@H]3C=C(c4nc5c(c(=O)[nH]4)CC4(CC5)CC4)CC3)CC2)cc1F` [Compound 84, (R)-2′-(3-(4-(3-fluoro-4-methylphenyl)piperazin-1-yl)cyclopent-1-en-1-yl)-7′,8′-dihydro-3′H-spiro[cyclopropane-1,6′-quinazolin]-4′(5′H)-one], the IC50 lay within 1 to 500 nM.
On to `Cc1cccc(N2CCN([C@H]3C=C(c4nc5c(c(=O)[nH]4)CC4(CC5)CC4)CC3)CC2)c1` [Compound 85, (R)-2′-(3-(4-(m-tolyl)piperazin-1-yl)cyclopent-1-en-1-yl)-7′,8′-dihydro-3′H-spiro[cyclopropane-1,6′-quinazolin]-4′(5′H)-one], for which the concentration for half-maximal inhibition (IC50) is 1 to 500 nM.
As to `O=c1[nH]c(C2=C[C@H](N3CCN(c4ccc(Cl)c(F)c4)CC3)CC2)nc2c1CC1(CC2)CC1` [Compound 86, (R)-2′-(3-(4-(4-chloro-3-fluorophenyl)piperazin-1-yl)cyclopent-1-en-1-yl)-7′,8′-dihydro-3′H-spiro[cyclopropane-1,6′-quinazolin]-4′(5′H)-one], the 50% inhibitory concentration (IC50) lay in the range of 1 to 500 nM.
For the compound `CNC(=O)c1cccc(N2CCN([C@H]3C=C(c4nc5c(c(=O)[nH]4)CC4(CC5)CC4)CC3)CC2)c1` [Compound 87, (R)—N-methyl-3-(4-(3-(4′-oxo-4′,5′,7′,8′-tetrahydro-3′H-spiro[cyclopropane-1,6′-quinazolin]-2′-yl)cyclopent-2-en-1-yl)piperazin-1-yl)benzamide], the concentration for half-maximal inhibition (IC50) was 1 to 500 nM.
Turning to `Cc1ccc(N2CCN([C@H]3C=C(c4nc5c(c(=O)[nH]4)CC4(CC5)CC4)CC3)CC2)c(F)c1` [Compound 88, (R)-2′-(3-(4-(2-fluoro-4-methylphenyl)piperazin-1-yl)cyclopent-1-en-1-yl)-7′,8′-dihydro-3′H-spiro[cyclopropane-1,6′-quinazolin]-4′(5′H)-one], the IC50 was 1 to 500 nM.
Turning to `CNC(=O)c1ccc(N2CCN([C@H]3C=C(c4nc5c(c(=O)[nH]4)CC4(CC5)CC4)CC3)CC2)cc1F` [Compound 89, (R)-2-fluoro-N-methyl-4-(4-(3-(4′-oxo-4′,5′,7′,8′-tetrahydro-3′H-spiro[cyclopropane-1,6′-quinazolin]-2′-yl)cyclopent-2-en-1-yl)piperazin-1-yl)benzamide], the IC50 lay within 1 to 500 nM.
As to `Cc1ccccc1N1CCN([C@H]2C=C(c3nc4c(c(=O)[nH]3)CC3(CC4)CC3)CC2)CC1` [Compound 90, (R)-2′-(3-(4-(o-tolyl)piperazin-1-yl)cyclopent-1-en-1-yl)-7′,8′-dihydro-3′H-spiro[cyclopropane-1,6′-quinazolin]-4′(5′H)-one], the concentration for half-maximal inhibition (IC50) was 1 to 500 nM.
For `O=c1[nH]c(C2=C[C@H](N3CCN(c4ccsc4)CC3)CC2)nc2c1CC1(CC2)CC1` [Compound 91, (R)-2′-(3-(4-(thiophen-3-yl)piperazin-1-yl)cyclopent-1-en-1-yl)-7′,8′-dihydro-3′H-spiro[cyclopropane-1,6′-quinazolin]-4′(5′H)-one], the IC50 lay in the range of 1 to 500 nM.
As for `Cc1ccc(N2CCN([C@H]3C=C(c4nc5c(c(=O)[nH]4)CC4(CC5)CC4)CC3)CC2)c(Cl)c1` [Compound 92, (R)-2′-(3-(4-(2-chloro-4-methylphenyl)piperazin-1-yl)cyclopent-1-en-1-yl)-7′,8′-dihydro-3′H-spiro[cyclopropane-1,6′-quinazolin]-4′(5′H)-one], the half-maximal inhibitory concentration (IC50) was 1 to 500 nM.
As to `O=c1[nH]c(C2=C[C@H](N3CCN(c4cccc(F)c4Cl)CC3)CC2)nc2c1CC1(CC2)CC1` [Compound 93, (R)-2′-(3-(4-(2-chloro-3-fluorophenyl)piperazin-1-yl)cyclopent-1-en-1-yl)-7′,8′-dihydro-3′H-spiro[cyclopropane-1,6′-quinazolin]-4′(5′H)-one], the 50% inhibitory concentration (IC50) was in the range of 1 to 500 nM.
As to `CNC(=O)c1ccc(N2CCN([C@H]3C=C(c4nc5c(c(=O)[nH]4)CC4(CC5)CC4)CC3)CC2)cc1Cl` [Compound 94, (R)-2-chloro-N-methyl-4-(4-(3-(4′-oxo-4′,5′,7′,8′-tetrahydro-3′H-spiro[cyclopropane-1,6′-quinazolin]-2′-yl)cyclopent-2-en-1-yl)piperazin-1-yl)benzamide], the 50% inhibitory concentration (IC50) was in the range of 1 to 500 nM.
The figure for `Cc1cc(F)ccc1N1CCN([C@H]2C=C(c3nc4c(c(=O)[nH]3)CC3(CC4)CC3)CC2)CC1` [Compound 95, (R)-2′-(3-(4-(4-fluoro-2-methylphenyl)piperazin-1-yl)cyclopent-1-en-1-yl)-7′,8′-dihydro-3′H-spiro[cyclopropane-1,6′-quinazolin]-4′(5′H)-one] is 1 to 500 nM; for `Cc1cc(Cl)ccc1N1CCN([C@H]2C=C(c3nc4c(c(=O)[nH]3)CC3(CC4)CC3)CC2)CC1` [Compound 96, (R)-2′-(3-(4-(4-chloro-2-methylphenyl)piperazin-1-yl)cyclopent-1-en-1-yl)-7′,8′-dihydro-3′H-spiro[cyclopropane-1,6′-quinazolin]-4′(5′H)-one] it is 1 to 500 nM.
`CNC(=O)c1ccc(N2CCN([C@H]3C=C(c4nc5c(c(=O)[nH]4)CC4(CC5)CC4)CC3)CC2)c(C)c1` [Compound 97, (R)—N, 3-dimethyl-4-(4-(3-(4′-oxo-4′,5′,7′,8′-tetrahydro-3′H-spiro[cyclopropane-1,6′-quinazolin]-2′-yl)cyclopent-2-en-1-yl)piperazin-1-yl)benzamide]: the IC50 was 1 to 500 nM.
As for `CNC(=O)c1ccc(N2CCN([C@H]3C=C(c4nc5c(c(=O)[nH]4)CC4(CC5)CC4)CC3)CC2)cc1C` [Compound 98, (R)—N, 2-dimethyl-4-(4-(3-(4′-oxo-4′,5′,7′,8′-tetrahydro-3′H-spiro[cyclopropane-1,6′-quinazolin]-2′-yl)cyclopent-2-en-1-yl)piperazin-1-yl)benzamide], the 50% inhibitory concentration (IC50) was in the range of 1 to 500 nM.
Turning to `O=c1[nH]c(C2=C[C@H](N3CCN(c4cccc(Cl)c4F)CC3)CC2)nc2c1CC1(CC2)CC1` [Compound 99, (R)-2′-(3-(4-(3-chloro-2-fluorophenyl)piperazin-1-yl)cyclopent-1-en-1-yl)-7′,8′-dihydro-3′H-spiro[cyclopropane-1,6′-quinazolin]-4′(5′H)-one], the IC50 was in the range of 501 to 5000 nM.
As for `O=c1[nH]c(C2=C[C@H](N3CCN(c4cccc(F)c4F)CC3)CC2)nc2c1CC1(CC2)CC1` [Compound 100, (R)-2′-(3-(4-(2,3-difluorophenyl)piperazin-1-yl)cyclopent-1-en-1-yl)-7′,8′-dihydro-3′H-spiro[cyclopropane-1,6′-quinazolin]-4′(5′H)-one], the IC50 lay in the range of 1 to 500 nM.
As for `O=c1[nH]c(C2=C[C@H](N3CCN(c4nccs4)CC3)CC2)nc2c1CC1(CC2)CC1` [Compound 101, (R)-2′-(3-(4-(thiazol-2-yl)piperazin-1-yl)cyclopent-1-en-1-yl)-7′,8′-dihydro-3′H-spiro[cyclopropane-1,6′-quinazolin]-4′(5′H)-one], the IC50 lay in the range of 1 to 500 nM.
The figure for `Cc1csc(N2CCN([C@H]3C=C(c4nc5c(c(=O)[nH]4)CC4(CC5)CC4)CC3)CC2)n1` [Compound 102, (R)-2′-(3-(4-(4-methylthiazol-2-yl)piperazin-1-yl)cyclopent-1-en-1-yl)-7′,8′-dihydro-3′H-spiro[cyclopropane-1,6′-quinazolin]-4′(5′H)-one] is 501 to 5000 nM; for `CNC(=O)c1cnc(N2CCN([C@H]3C=C(c4nc5c(c(=O)[nH]4)CC4(CC5)CC4)CC3)CC2)c(Cl)c1` [Compound 103, (R)-5-chloro-N-methyl-6-(4-(3-(4′-oxo-4′,5′,7′,8′-tetrahydro-3′H-spiro[cyclopropane-1,6′-quinazolin]-2′-yl)cyclopent-2-en-1-yl)piperazin-1-yl)nicotinamide] it is 1 to 500 nM.
Turning to `CNC(=O)c1cnc(N2CCN([C@H]3C=C(c4nc5c(c(=O)[nH]4)CC4(CC5)CC4)CC3)CC2)s1` [Compound 104, (R)—N-methyl-2-(4-(3-(4′-oxo-4′,5′,7′,8′-tetrahydro-3′H-spiro[cyclopropane-1,6′-quinazolin]-2′-yl)cyclopent-2-en-1-yl)piperazin-1-yl)thiazole-5-carboxamide], the IC50 is 1 to 500 nM.
The figure for `CNC(=O)c1csc(N2CCN([C@H]3C=C(c4nc5c(c(=O)[nH]4)CC4(CC5)CC4)CC3)CC2)n1` [Compound 105, (R)—N-methyl-2-(4-(3-(4′-oxo-4′,5′,7′,8′-tetrahydro-3′H-spiro[cyclopropane-1,6′-quinazolin]-2′-yl)cyclopent-2-en-1-yl)piperazin-1-yl)thiazole-4-carboxamide] is 501 to 5000 nM.
